These results are taken from ChEMBL document CHEMBL1121583, “Synthesis and structure-activity studies of a series of 7 alpha-halogeno corticosteroids” (1980).

The test relates to Mus musculus. Put plainly: Relative topical anti inflammatory activity was measured in mice by comparing with cumulative potency of betamethasone valerate by using croton oil ear assay. The format is functional.
`CCC(=O)OCC(=O)[C@@]1(OC(=O)CC)[C@@H](C)CC2C3C(C(O)C[C@@]21C)[C@@]1(C)C=CC(=O)C=C1C[C@H]3Br` (some centres not stated) came in with a Potency of 186.

For `CC(=O)OCC(=O)[C@@]1(O)[C@@H](C)CC2C3C(C(O)C[C@@]21C)[C@@]1(C)C=CC(=O)C=C1C[C@H]3Cl` (some centres not stated), the Potency was found to be 81. The compound `CCC(=O)OCC(=O)[C@@]1(OC(=O)CC)[C@H](C)CC2C3C(C(O)C[C@@]21C)[C@@]1(C)C=CC(=O)C=C1C[C@H]3F` (some centres not stated) came in with a Potency of 78. The value for `CC(=O)OCC(=O)[C@@]1(O)[C@H](C)CC2C3C(C(O)C[C@@]21C)[C@@]1(C)C=CC(=O)C=C1C[C@H]3Br` (some centres not stated) was 20; that for `CCC(=O)OCC(=O)[C@@]1(OC(=O)CC)[C@@H](C)CC2C3C(C(O)C[C@@]21C)[C@@]1(C)C=CC(=O)C=C1C[C@H]3I` (some centres not stated) was 103; that for `CC(=O)OCC(=O)[C@@]1(O)[C@@H](C)CC2C3C=CC4=CC(=O)C=C[C@]4(C)C3C(O)C[C@@]21C` (some centres not stated) was 29. `CCC(=O)OCC(=O)[C@@]1(OC(=O)CC)[C@H](C)CC2C3CCC4=CC(=O)C=C[C@]4(C)C3C(O)C[C@@]21C` (some centres not stated) returned a Potency of 74. `CCC(=O)OCC(=O)[C@@]1(OC(=O)CC)[C@H](C)CC2C3C(C(O)C[C@@]21C)[C@@]1(C)C=CC(=O)C=C1C[C@H]3Br` (some centres not stated) returned a Potency of 120. Next, `CCC(=O)OCC(=O)[C@@]1(OC(=O)CC)[C@@H](C)CC2C3C(C(O)C[C@@]21C)[C@@]1(C)C=CC(=O)C=C1C[C@H]3F` (some centres not stated): 69. The value for `CCC(=O)OCC(=O)[C@@]1(OC(=O)CC)[C@H](C)CC2C3C=CC4=CC(=O)C=C[C@]4(C)C3C(O)C[C@@]21C` (some centres not stated) was 27. Take `CCC(=O)OCC(=O)[C@@]1(OC(=O)CC)[C@@H](C)CC2C3C=CC4=CC(=O)C=C[C@]4(C)C3C(O)C[C@@]21C` (some centres not stated): the Potency amounted to 57.

`CCC(=O)OCC(=O)[C@@]1(OC(=O)CC)[C@H](C)CC2C3C(C(O)C[C@@]21C)[C@@]1(C)C=CC(=O)C=C1C[C@H]3I` (some centres not stated) yielded a Potency of 36. For `CC(=O)OCC(=O)[C@@]1(O)[C@H](C)CC2C3C=CC4=CC(=O)C=C[C@]4(C)C3C(O)C[C@@]21C` (some centres not stated), the Potency is 4.

As for `CC(=O)OCC(=O)[C@@]1(O)[C@@H](C)CC2C3C(C(O)C[C@@]21C)[C@@]1(C)C=CC(=O)C=C1C[C@H]3Br` (some centres not stated), the Potency amounted to 94. `CC(=O)OCC(=O)[C@@]1(O)[C@H](C)CC2C3CCC4=CC(=O)C=C[C@]4(C)C3C(O)C[C@@]21C` (some centres not stated) displayed a Potency of 10. The value for `CCC(=O)OCC(=O)[C@@]1(OC(=O)CC)[C@@H](C)CC2C3CCC4=CC(=O)C=C[C@]4(C)C3C(O)C[C@@]21C` (some centres not stated) was 76. `CC(=O)OCC(=O)[C@@]1(O)[C@@H](C)CC2C3C(C(O)C[C@@]21C)[C@@]1(C)C=CC(=O)C=C1C[C@H]3I` (some centres not stated) displayed a Potency of 54. In turn, `CC(=O)OCC(=O)[C@@]1(O)[C@@H](C)CC2C3C(C(O)C[C@@]21C)[C@@]1(C)C=CC(=O)C=C1C[C@H]3F` (some centres not stated) had a Potency of 16.

The compound `CC(=O)OCC(=O)[C@@]1(O)[C@@H](C)CC2C3CCC4=CC(=O)C=C[C@]4(C)C3C(O)C[C@@]21C` (some centres not stated) showed a Potency of 26. With `CC(=O)OCC(=O)[C@@]1(O)[C@H](C)CC2C3C(C(O)C[C@@]21C)[C@@]1(C)C=CC(=O)C=C1C[C@H]3Cl` (some centres not stated), the Potency is listed as 32. Turning to `CCC(=O)OCC(=O)[C@@]1(OC(=O)CC)[C@@H](C)C[C@H]2[C@@H]3CCC4=CC(=O)C=C[C@]4(C)[C@@]3(F)[C@@H](O)C[C@@]21C` [BETAMETHASONE DIPROPIONATE], the Potency was 165. Consider `CCCCC(=O)O[C@]1(C(=O)CO)[C@@H](C)C[C@H]2[C@@H]3CCC4=CC(=O)C=C[C@]4(C)[C@@]3(F)[C@@H](O)C[C@@]21C` [BETAMETHASONE VALERATE], for which the Potency was found to be 100.
